One assay concerns the target AAD2 (v1) (Bradyrhizobium diazoefficiens, UniProt Q89UC4). The assay can be described thus: Colorimetric phenol assay of AAD2 (v1) E. coli extract / partially purified enzyme. Format: biochemical, Bradyrhizobium japonicum. The following applies: E. coli extract.
The target in the next assay is T1, AAD1 (v1) (Sphingobium herbicidovorans, UniProt Q8KSC8).
T1 construct: made in house; host or cells: E. coli BL-21 Star (DE3), plasmid pDAB3203
The assay can be described thus: Colorimetric phenol detection assay of AAD1 (v1) activity (purified enzyme or E. coli extract). Type of assay: biochemical.

In another assay the test system is immature Hi-II embryos. The assay can be described thus: Dose response using immature maize embryos (% embryogenic callus formation). The note with it: up to 30 nM. Format: cell-based. The protocol: Dose response studies were initiated using immature embryos treated with Agrobacterium strain LBA4404 lacking a plasmid as described previously. Once treated, embryos were allowed to co-cultivate for 5 days at 25° C. and were then transferred to selection media containing various levels of R-haloxyfop or R-cyhalofop. Embryos were also transferred to media containing 1 mg/L bialaphos and 100 nM imazethapyr as negative controls. Embryos were scored for % embryogenic callus formation after 2 weeks, and then again after 4 weeks.

The test system of assay [1] is transformed-control line containing PAT and Cry1F. The assay can be described thus: Foliar-applied auxinic herbicides on control (PAT/Cry1F, wildtype) Arabidopsis, % injury 14 DAT. Type of assay: in vivo, Arabidopsis thaliana. The note with it: PatCry1f - Control. In a few lines:
(§1)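 Homozygous T4 AAD1 (v3) Arabidopsis (line AAD1.01.315.076) and a PAT/Cry1F transformed control were grown in pots and track-sprayed foliarly at 187 L/ha with herbicides formulated in 200 mM Hepes pH 7.5. Injury was rated 14 days after treatment, with 3-4 replicates averaged over two experiments.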

Assay [2] has as its system T4 Arabidopsis homozygous for AAD1 (v3) (line AAD1.01.315.076). The assay can be described thus: Foliar-applied auxinic herbicides on homozygous T4 AAD1 (v3) Arabidopsis, % injury 14 DAT. Format: in vivo, Arabidopsis thaliana. The following applies: AAD1.01.315.076.T4 homozygous AAD1 plants. In short, it runs like this: as §1
The test system of assay [3] is F1 corn containing AAD1 (v3), PAT, and glyphosate resistance genes. The assay can be described thus: Greenhouse injury of F1 corn stacked with AAD1 (v3), PAT and glyphosate resistance (2,4-D DMA, glyphosate, glufosinate and combinations). Type of assay: in vivo. The following applies: RR/PAT/AAD1. An excerpt:
Homozygous T2 AAD1 (v3)/PAT corn plants were crossed with glyphosate resistant corn plants producing F1 seed containing AAD1 (v3), PAT, and glyphosate resistance genes as described in the previous example.
(§2) F1 seeds were planted individually into 3-inch pots prepared with Metro-Mix® 360 growing medium (Sun Gro Horticulture). […] For the remainder of the study the plants were subirrigated with deionized water.
(§3) The plants were sprayed with rates of 2,4-D DMA, glyphosate, glufosinate, and various combinations of the three. All applications were formulated in 200 mM Hepes buffer (pH 7.5). In spray applications where glufosinate was present the treatment was formulated with the addition of 2% w/v ammonium sulfate.
(§4) At 3 and 14 days after treatment (DAT) plants were evaluated. Plants were assigned injury rating with respect to stunting, chlorosis, and necrosis. Plants assigned an injury rating of 90% or above are considered dead.

The subject of the next assay is AAD1 (v3) cotton plant. The assay can be described thus: 2,4-D resistance of AAD1 (v3) cotton plant. Type of assay: in vivo. The note with it: 560 g ae/ha. The protocol: (§5) Two AAD1 (v3) cotton lines have produced plants according to the above protocol that have been sent to the greenhouse. […] The plants were sprayed at 560 g ae/ha 2,4-DMA formulated in 200 mM Hepes buffer (pH 7.5). The plants were evaluated at 3, 7, and 14 days after treatment. Plants were assigned injury ratings with respect to stunting, chlorosis, and necrosis. Plants assigned an injury rating of 90% or above are considered dead. […] By 7 DAT epinasy continued on the wild-type and the new growth shoots began turning brown. It received a rating of 50% at this time. At 14 DAT the AAD1 (v3) plant was still uninjured, whereas the wild-type was severely stunted, and the new growth areas were brown and shriveled. Thus, the wild-type received a rating of 90% at 14 DAT.

The next assay relates to wild-type cotton plants. Kind of assay: 2,4-D injury of wild-type cotton plant. The note with it: 560 g ae/ha. Format: in vivo. The protocol:
as §5

The subject of assay [4] is AAD1 (v3) T1 tobacco (events 721(2)-013.010 and 721(3)-008.005). The assay can be described thus: Segregating AAD1 T1 tobacco response to phenoxy auxin herbicides. Format: in vivo, Nicotiana tabacum. An excerpt: (§6) Two AAD1 (v3) tobacco lines (event 721(2)-013.010 and 721(3)-008.005) were chosen from the T0 generation. The T1 seed was stratified, and sown into selection trays much like that of Arabidopsis (Example 6.4), followed by selective removal of untransformed nulls in this segregating population with 280 g ai/ha glufosinate (PAT selection). Survivors were transferred to individual 3-inch pots in the greenhouse. […] Improved consistency of response is anticipated in T1 plants not having come directly from tissue culture. These plants were compared against wildtype KY 160 tobacco. All plants were sprayed with the use of a track sprayer set at 187 L/ha. […] All applications were formulated in 200 mM Hepes buffer (pH 7.5). Each treatment was replicated 4 times. Plants were evaluated at 3 and 14 days after treatment. Plants were assigned injury rating with respect to stunting, chlorosis, and necrosis. The T1 generation is segregating, so some variable response is expected due to difference in zygosity. (Table 28).

The test system of the next assay is wildtype KY 160 tobacco. The assay can be described thus: Wildtype tobacco response to phenoxy auxin herbicides. Type of assay: in vivo, Nicotiana tabacum. The following applies: KY160-Wildtype. The protocol: Each treatment was replicated 1-3 times. Injury ratings were recorded 3 and 14 DAT. […] In several events, some initial auxinic herbicide-related epinasty occurred at doses of 800 g ae/ha or less. […] All events suffered some level temporary auxinic damage 3 DAT when treated with 3200 g ae/ha. Some leaf burning also occurred at this high rate due to the acidity of the spray solution. Future trials at high 2,4-D rates were buffered. […] Some events were inconsistent in response among replicates and were deemed “variable” (Table 27).
as §6

A further assay concerns Hi II X 5XH751. Kind of assay: Greenhouse injury of non-transformed Hi II X 5XH751 corn (2,4-D DMA, glyphosate, glufosinate and combinations). Format: in vivo. The protocol: as §2, §3, §4
Assay [5] concerns non-transformed (NT) ‘Shamrock’ Kentucky bluegrass. The assay can be described thus: Haloxyfop-R-methyl on non-transformed Kentucky bluegrass controls. Type of assay: in vivo. The note with it: seed grown plants. The method, then: The selected T0 plants were sprayed with haloxyfop-R-methyl (Gallant Super®, DOW AGROSCIENCES, INC.) at rates ranging from 140 to 560 g ae/ha. […] This rate would also control susceptible monocot weed species. Measured amounts were placed individually in 25 mL glass vials and dissolved in a 12 mL volume of 1.0% (v/v) Agri-Dex® Crop Oil Concentrate (COC).
Spray solutions were applied to the plant material with an overhead Mandel™ track sprayer equipped with a 8002E nozzles calibrated to deliver 187 L/ha over an application area of 0.503 square meters (m^2) at a spray height of 18 inches (46 cm) above average plant canopy height. Control plants were sprayed in the same manner with the COC blank.
The treated plants and control plants were placed in a greenhouse and watered by sub-irrigation to prevent wash-off of the test compounds. At various times after application, the condition of the test plants as compared with that of the untreated plants was determined visually and scored on a scale of 0 to 100 percent, where 0 corresponds to no injury or growth inhibition, and 100 corresponds to complete kill. Regenerated, non-transformed (NT) ‘Shamrock’ Kentucky bluegrass plants and/or seed-derived clonally propagated plants served as haloxyfop sensitive controls.

For assay [6], the system named is pDAB3230-transformed Arabidopsis. The assay can be described thus: Glyphosate tolerance of pDAB3230 (AAD1 (v3)+EPSPS) T1 Arabidopsis. Type of assay: in vivo, Arabidopsis thaliana. The note with it: 7 DAT; EPSPS stacked with AAD1 (v3).

The kcat is the number of substrate molecules converted per active site and unit of time at saturation. As a reminder, the Km is the concentration of substrate that gives half-maximal velocity. For the compound `C[C@@H](Oc1ccc(Oc2ncc(C(F)(F)F)cc2Cl)cc1)C(=O)O` [R-haloxyfop], on AAD2 (v1), the “AAD2 (v1) activity on substrate” value is “unable to act”. Also, the “activity of AAD1 (v1) E. coli extract on substrate” value on AAD1 (v1) (0.5 mM substrate, 4 μl extract, 15 min) is “equivalent to that on (R,S)-haloxyfop”. In addition, the kcat at AAD1 (v1) (purified AAD1 (v1)) came out at 0.187 s⁻¹. The Km at AAD1 (v1) (purified AAD1 (v1), 25 mM MOPS pH 6.8, 25° C., read-out: Km ± SE) amounted to 120 ± 54 µM. Besides, the “Vmax ± SE” value on AAD1 (v1) (purified AAD1 (v1), Michaelis-Menten fit) is reported as 0.34 ± 0.04 μmol min^−1 mg^−1 AAD1. Further, in the assay with immature Hi-II embryos, the “reduction of embryogenic callus formation” value is “insufficient reduction of callus formation”.
Take `CNC.O=C(O)COc1ccc(Cl)cc1Cl` [2,4-DMA]: the “Ave % Injury 14DAT” value is 67% in assay [1] (12.5 g ae/ha foliar); 78% in [1] (25 g ae/ha foliar); 93% in assay [1] (50 g ae/ha foliar); 100% in assay [1] (100 g ae/ha foliar); 100% in assay [1] (200 g ae/ha foliar); 100% in [1] (400 g ae/ha foliar). Moreover, the “Ave % Injury 14DAT” value in assay [1] (800 g ae/ha foliar) is 100%; in assay [1] (1600 g ae/ha foliar), 100%; in [2] (12.5 g ae/ha foliar) it was 0%; in assay [2] (25 g ae/ha foliar), 0%; in [2] (50 g ae/ha foliar), 0%; in [2] (100 g ae/ha foliar), 0%. For the same compound, the “Ave % Injury 14DAT” value in [2] (200 g ae/ha foliar), in [2] (400 g ae/ha foliar), in assay [2] (800 g ae/ha foliar) and in [2] (1600 g ae/ha foliar) was 0% in each case. Besides, the “% Injury at 14 DAT Ave” value in [3] (560 g ae/ha (1X)) amounted to 0%; in [3] (1120 g ae/ha (2X)), 0%; in assay [3] (2240 g ae/ha (4X)), 0%; in the assay on Hi II X 5XH751 (560 g ae/ha (1X)) it was 10%; in the assay on Hi II X 5XH751 (1120 g ae/ha (2X)), 14%; in the assay with Hi II X 5XH751 (2240 g ae/ha (4X)) it was 29%. Besides, the “injury, AAD1 (v3) cotton” value is recorded as 0% in the assay with AAD1 (v3) cotton plant (3 DAT) and “uninjured” with AAD1 (v3) cotton plant (14 DAT). The “injury rating, wild-type cotton” value with wild-type cotton plants (3 DAT) is reported as 15%; in the assay on wild-type cotton plants (7 DAT) it was 50%; in the assay on wild-type cotton plants (14 DAT), 90%. The “Average % Injury of Replicates 14 DAT” value is recorded as 5% in [4] (560 g ae/ha, 721(2)013.010 (medium tolerance in T0 generation)); 0% in [4] (560 g ae/ha, 721(3)008.005 (high tolerance in T0 generation)); 5% in assay [4] (1120 g ae/ha, 721(2)013.010 (medium tolerance in T0 generation)); 2% in [4] (1120 g ae/ha, 721(3)008.005 (high tolerance in T0 generation)); 5% in assay [4] (2240 g ae/ha, 721(2)013.010 (medium tolerance in T0 generation)); 0% in assay [4] (2240 g ae/ha, 721(3)008.005 (high tolerance in T0 generation)). The “Average % Injury of Replicates 14 DAT” value was found to be 5% in assay [4] (4480 g ae/ha, 721(2)013.010 (medium tolerance in T0 generation)); 5% in assay [4] (4480 g ae/ha, 721(3)008.005 (high tolerance in T0 generation)); 75% with wildtype KY 160 tobacco (560 g ae/ha); 80% in the assay with wildtype KY 160 tobacco (1120 g ae/ha); 90% in the assay on wildtype KY 160 tobacco (2240 g ae/ha); 95% in the assay with wildtype KY 160 tobacco (4480 g ae/ha).
Take `COC(=O)[C@@H](C)Oc1ccc(Oc2ncc(C(F)(F)F)cc2Cl)cc1` [haloxyfop-R-methyl]: the “GR90 (herbicide rate which produces 90% injury and/or growth inhibition)” value in assay [5] was “approximately 70 g ae/ha”.
As to `O=C(O)CNCP(=O)(O)O` [glyphosate], the “% Injury at 14 DAT Ave” value in assay [3] (840 g ae/ha (1X field rate)) was found to be 0%; in assay [3] (1680 g ae/ha (2X)), 0%; in assay [3] (3360 g ae/ha (4X)), 0%; in the assay with Hi II X 5XH751 (840 g ae/ha (1X field rate)), 98%; in the assay on Hi II X 5XH751 (1680 g ae/ha (2X)), 100%; with Hi II X 5XH751 (3360 g ae/ha (4X)) it was 100%. In addition, in assay [6], the “level of glyphosate tolerance (I50) vs. wildtype and transformed control lines” value is given as more than 14 fold.

The values above are taken from patent US10450549B2, “Aryloxyphenoxypropionate tolerance in turfrgass species and use of AAD1 as a selectable marker” (Dow AgroSciences, LLC, priority 2004, dated 2019).
